Measurements published in patent US20100009957A1, “NOVEL INHIBITORS OF BETA-LACTAMASE” (priority 2006, published 2010).
Where two headings read alike, the source gives them in different places.

Assays:
[1] = target: AmpC (P. aeruginosa.) (Pseudomonas aeruginosa, UniProt P24735); assay: biochemical; details: nitrocefin substrate, pH 7
Procedure: The Class C enzyme activities were measured in the presence of the test inhibitor in spectrophotometric assay against the commercially available substrate, nitrocefin. The enzyme AmpC (P. aeruginosa.), and the substrate, were dissolved in 100 mM KH2PO4 buffer (pH 7). The buffer also contains 0.005% BSA. The test inhibitor was dissolved in DMSO and diluted 1:20 in the assay, resulting in a final concentration range of 50 μM to 0.0002 μM. In a 96-well microplate, the test inhibitor was incubated with the beta-lactamase enzyme for 40 minutes at ambient temperature, the substrate solution was added, and the incubation continued for another 40 minutes. The spectrophotomertric reaction was quenched by the addition of 2.5N acetic acid and the absorbance at 492 nm was measured. The IC50 value was determined from semi logarithmic plots of enzyme inhibition versus inhibitor concentration, with a curve generated using a 4-parameter fit.

[2] = system: P. aeruginosa strain CL5701; assay: Synergy assay (checkerboard) with imipenem; type: cell-based, Pseudomonas aeruginosa; details: for In Vitro 2X Synergy CL5701: concentration for 2X synergy with imipenem against P. aeruginosa strain CL5701; for In Vitro 8X Synergy CL5701: concentration for 8X synergy with imipenem against P. aeruginosa strain CL5701; for In Vitro 16X Synergy CL5701: concentration for 16X synergy with imipenem against P. aeruginosa strain CL5701
From the text: The assay determines the concentration of a β-lactamase inhibitor required to reduce the MIC of a β-lactam antibiotic by one-half, one-quarter, one-eighth, one-sixteenth and one-thirty-second against strains of bacteria normally resistant to the antibiotic in question. This is accomplished by titrating the BLI in a serial dilution across a microtiter plate while at the same time titrating the antibiotic in a serial dilution down the microtiter plate and then inoculating the plate with the bacterial strain in question and allowing the bacteria to grow up overnight. Each well in this microplate checkerboard contains a different combination of concentrations of the inhibitor and the antibiotic allowing a full determination of any synergy between the two.
• CL 5701 (Pseudomonas aeruginosa; Pa AmpC)/Imipenem • MB 2646 (Enterobacter cloacae; P99)/Ceftazidime • CL 5513 (Klebsiella pneumoniae; SHV-5)/Ceftazidime • CL 6188 (Acinetobacter baumanii; Oxa40)/Imipenem • CL 6569 (Klebsiella pneumoniae; KPC-2)/Imipenem • CL 5761 (Klebsiella pneumoniae; KPC-3)/Imipenem • CLB 21648 (Acinetobacter baumanii; Ab AmpC)/Imipenem
• 1. […] All wells in row A of MIC 2000 microtiter plates are filled with 100 μL of 2× MHBII+2% DMSO. • 3. […] 100 μL of 2× the final antibiotic concentration wanted is added to wells A2-A12 of the MIC 2000 plates. • 5. 100 μL is serially diluted from row A to row G of each MIC 2000 plate. • 6. 100 μL is removed from each well in row G of each MIC 2000 plate. • 7. 100 μL of 2× the final inhibitor concentration wanted (in MHBII+1% DMSO) is added to all wells in column 1 of the microtiter plates. • 8. 100 μL is serially diluted from column 1 to column 11 of each MIC 2000 plate. • 9. 100 μL is removed from each well in column 11 of each MIC 2000 plate. • 10. Plates are then inoculated with an overnight growth (in TSB) of the strain to be tested using an MIC 2000 inoculator. • 11. Plates are left at 37° C. for about 20 hours and scored for growth by eye.
Synergy may be expressed as a ratio of the minimum inhibitory concentration (MIC) of an antibiotic tested in the absence of a β-lactamase inhibitor to the MIC of the same antibiotic tested in the presence of the β-lactamase inhibitor. […] Alternatively, the synergy effect may be expressed as a factor, again, utilizing a concentration of the BLI to lower the MIC of the antibiotic.
Representative compounds of the present invention display a synergy effect. For example, the compounds of Examples 1 to 20 were determined to have 2× synergy concentrations in a range of from about 100 μM or less.

[3] = P. aeruginosa AmpC IC50, 40 min preincubation
[4] = 40 min preincubation, read-out: P. aeruginosa AmpC IC50

AmpC (P. aeruginosa.), sequence (P24735 27-397): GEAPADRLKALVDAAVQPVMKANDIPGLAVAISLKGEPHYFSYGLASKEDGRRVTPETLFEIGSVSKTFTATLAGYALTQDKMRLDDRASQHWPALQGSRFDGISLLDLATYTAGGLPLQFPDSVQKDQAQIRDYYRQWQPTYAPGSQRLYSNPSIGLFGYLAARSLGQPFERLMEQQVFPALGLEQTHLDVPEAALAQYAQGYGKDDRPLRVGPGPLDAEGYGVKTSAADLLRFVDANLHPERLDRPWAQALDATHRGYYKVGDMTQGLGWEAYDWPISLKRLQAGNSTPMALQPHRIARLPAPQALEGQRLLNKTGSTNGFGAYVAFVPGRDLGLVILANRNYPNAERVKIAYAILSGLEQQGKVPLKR

IC50 [1, 4]	SMILES	IC50 [1, 3]	In Vitro 2X Synergy CL5701 [2]	In Vitro 8X Synergy CL5701 [2]	In Vitro 16X Synergy CL5701 [2]
	O=C(NC1CCCCNCC1)N1CC[C@@H]2[C@H]1C(=O)N2S(=O)(=O)O (single isomer, unassigned; isomer a) [Example 17]	1300 nM	3.1 µM	12.5 µM	50 µM
	O=C(NC1CCCCNCC1)N1CC[C@@H]2[C@H]1C(=O)N2S(=O)(=O)O (single isomer, unassigned; isomer b) [Example 18]	25000 nM	12.5 µM	>100 µM	>100 µM
	O=C(NC1CCNCC1)N1CC[C@@H]2[C@H]1C(=O)N2S(=O)(=O)O [Compound A, reference compound]	6800 nM	3.7 µM	21 µM	67 µM
1200 nM	O=C(N[C@H]1CCCNCC1)N1CC[C@@H]2[C@H]1C(=O)N2S(=O)(=O)O [Example 1]		2.3 µM		25 µM
4000 nM	O=C(N[C@@H]1CCCNCC1)N1CC[C@@H]2[C@H]1C(=O)N2S(=O)(=O)O [Example 2]		3.1 µM	25 µM	100 µM
	O=C(NC1CCCCCC1)N1CC[C@@H]2[C@H]1C(=O)N2S(=O)(=O)O [Example 3]	400 nM	100 µM	>100 µM	>100 µM
600 nM	O=C(N[C@@H]1CNCCOC1)N1CC[C@@H]2[C@H]1C(=O)N2S(=O)(=O)O [Example 7, (1S,5R)-2-{[(6R)-1,4-Oxazepan-6-ylamino]carbonyl}-7-oxo-2,6-diazabicyclo[3.2.0]heptane-6-sulfonic acid]		6.3 µM	25 µM	100 µM
1100 nM	O=C(N[C@H]1CNCCOC1)N1CC[C@@H]2[C@H]1C(=O)N2S(=O)(=O)O [Example 8, (1S,5R)-2-{[(6S)-1,4-Oxazepan-6-ylamino]carbonyl}-7-oxo-2,6-diazabicyclo[3.2.0]heptane-6-sulfonic acid]		6.3 µM	50 µM	100 µM
